# Laboratory results reported in patent US11297837B2, “Pesticidally activi mixtures comprising anthranilamide compounds” (priority 2016, dated 2022).
# Assays:
# Type in all cases: in vivo
# [1] = system: boll weevil (Anthonomus grandis); experiment: Boll weevil (Anthonomus grandis) control, insect diet with eggs in 24-well microtiter plates; conditions: egg and larval mortality visually assessed after 5 days
# Protocol: For evaluating control of boll weevil the test unit consisted of 24-well-microtiter plates containing an insect diet and 20-30 A. grandis eggs.
# The compounds or mixtures were formulated using a solution containing 75% water and 25% DMSO. Different concentrations of formulated compounds or mixtures were sprayed onto the insect diet at 20 μl, using a custom built micro atomizer, at two replications.
# (§1) For experimental mixtures in these tests identical volumes of both mixing partners at the desired concentrations respectively, were mixed together.
# After application, microtiter plates were incubated at 23+1° C., 50+5% RH for 5 days. Egg and larval mortality was then visually assessed.
# [2] = system: yellow fever mosquito (Aedes aegypti); experiment: Yellow fever mosquito (Aedes aegypti) control, larvae in tap water in 96-well microtiter plates; conditions: larval mortality visually assessed after 2 days
# Protocol: For evaluating control of yellow fever mosquito (Aedes aegypti) the test unit consisted of 96-well-microtiter plates containing 200 μl of tap water per well and 5-15 freshly hatched A. aegypti larvae.
# The compounds or mixtures were formulated using a solution containing 75% water and 25% DMSO. Different concentrations of formulated compounds or mixtures were sprayed onto the insect diet at 2.5 μl, using a custom built micro atomizer, at two replications.
# as §1
# After application, microtiter plates were incubated at 28±1° C., 80±5% RH for 2 days. Larval mortality was then visually assessed.
# [3] = system: green peach aphid (Myzus persicae); experiment: Green peach aphid (Myzus persicae) control through systemic means, artificial diet in 96-well microtiter plates; conditions: 2 ppm; aphid mortality and fecundity visually assessed after 3 days
# From the text: For evaluating control of green peach aphid (Myzus persicae) through systemic means the test unit consisted of 96-well-microtiter plates containing liquid artificial diet under an artificial membrane.
# Different concentrations of formulated compounds or mixtures were pipetted into the aphid diet, using a custom built pipetter, at two replications.
# as §1
# After application, 5-8 adult aphids were placed on the artificial membrane inside the microtiter plate wells. […] Aphid mortality and fecundity was then visually assessed.
smiles,measurement,setting,value
"CC(NC(=O)c1cc(Cl)cc(Br)c1NC(=O)c1cc(Br)nn1-c1ncccc1Cl)C1CC1 (centres unmarked) [I.2, cyclaniliprole, reference compound]",Average Control %,[1]; 0.08 ppm,0%
same,Average Control %,[2]; 2 ppm,0%
"Cn1nc(C(F)(F)C(F)(F)F)c(C(F)(F)F)c1C(=O)Nc1ccc(Cl)c(C(=O)NCc2ccccc2)c1 [II-1, N-[4-Chloro-3-[[(phenylmethyl)amino]carbonyl]phenyl]-1-methyl-3-(1,1,2,2,2-pentafluoroethyl)-4-(trifluoromethyl)-1H-pyrazole-5-carboxamide]",Average Control %,[1]; 20 ppm,0%
same,Average Control %,[2]; 20 ppm,50%
"CCN1OC[C@@H](NC(=O)c2ccc(C3=NOC(c4cc(Cl)cc(Cl)c4)(C(F)(F)F)C3)cc2C)C1=O (stereo partly drawn) [II-4.1, 4-[5-(3,5-dichlorophenyl)-5-(trifluoromethyl)-4H-isoxazol-3-yl]-N-[(4R)-2-ethyl-3-oxo-isoxazolidin-4-yl]-2-methyl-benzamide]",Average Control %,[3],0%
